Assays:
MDM2 [1] = molecular target: T1, MDM2 (Homo sapiens, UniProt P19338+Q00987); test: MDM2 protein degradation in A549 non-small cell lung cancer cells, western blot; format: cell-based; conditions: A549, 200 nM, 3 h
T1 construct: endogenous in cells; host or cells: A549
Method: (1) A549 non-small cell lung cancer cells were incubated with 200 nM AS1411-VH032, and corresponding cell samples were collected at time gradients of 0 h, 3 h, 6 h, 9 h, 12 h, and 24 h for protein extraction and subsequent western blot assay to detect protein degradation.
(2) A549 non-small cell lung cancer cells were incubated with AS1411-VH032 at concentrations of 0 nM, 50 nM, 100 nM, 150 nM, 200 nM, and 250 nM. After 3 h, cell samples were collected for protein extraction and subsequent western blot assay to detect protein degradation.
(3) A549 non-small cell lung cancer cells were incubated with 200 nM AS1411, VH032, AS1411-VH032, or AS1411+VH032. After 3 h, cell samples were collected for protein extraction and subsequent western blot assay to detect protein degradation.
(4) A549 non-small cell lung cancer cells were incubated with 200 nM AS1411-VH032 for 3 h, and proteasome inhibitor MG132 was added. Cell samples were collected for protein extraction and subsequent western blot assay.
(5) A549 non-small cell lung cancer cells were transfected with si-NC or si-NCL and subsequently incubated with 200 nM AS1411-VH032 for 3 h. Cell samples were collected for protein extraction and subsequent western blot assay.
(1) A549 non-small cell lung cancer cells were incubated with 1000 nM AS1411-AS1411, and corresponding cell samples were collected at time gradients of 0 h, 3 h, 6 h, 9 h, 12 h, and 24 h for protein extraction and subsequent western blot assay to detect protein degradation.
(2) A549 non-small cell lung cancer cells were incubated with AS1411-AS1411 at concentrations of 0 nM, 50 nM, 100 nM, 250 nM, 500 nM, and 1000 nM. After 12 h, cell samples were collected for protein extraction and subsequent western blot assay to detect protein degradation.
(3) A549 non-small cell lung cancer cells were incubated with 1000 nM AS1411, AS1411-AS1411, or AS1411+AS1411. After 12 h, cell samples were collected for protein extraction and subsequent western blot assay to detect protein degradation. […]

[2] = tested on: MCF 10A human normal mammary epithelial cells; test: Toxicity to normal cells, cell apoptosis proportion by flow cytometer; format: cell-based; conditions: 0-5000 nM, 4 days, medium renewed every day
Method: The toxicity of AS1411 to normal cells was compared with that of the small molecule ligand nutlin-3a of MDM2 to normal cells. AS1411 or nutlin-3a at different concentrations (0 nM, 500 nM, 1000 nM, and 5000 nM) was incubated with MCF 10A human normal mammary epithelial cells for 4 days, and the medium containing the respective concentrations of AS1411 or nutlin-3a was renewed every day. The cell apoptosis proportion was detected using a flow cytometer.

NCL [3] = molecular target: T2, NCL (Homo sapiens, UniProt P19338); test: Biotin-oligonucleotide pull-down with recombinant proteins (NCL); format: binding; set-up: purchased ACROBiosystems (NCL); R&D Systems (MDM2) NUL-H5253 (NCL); E3-202-050 (MDM2); conditions: 400 nM 5′-biotin label, 6 μg/mL NCL + 6 μg/mL MDM2
Method: (§1) 6 μg/mL recombinant human NCL and 6 μg/mL recombinant human MDM2 were mixed well and incubated at 4° C. for 7 h. Subsequently, 400 nM CRO, AS1411, or iSN04 labeled by biotin at the 5′ end was added, and the mixture was incubated at 4° C. for 6 h. Streptavidin agarose gel beads (purchased from cytiva, Cat. No.: 17511301) were added, and the mixture was further incubated at 4° C. overnight. The gel beads were washed 4 times with a TBST buffer, and an SDS-PAGE protein loading buffer (purchased from Beyotime, Cat. No.: P0015) was added. The mixture was heated to 100° C. and held for 10 min. After centrifugation, the supernatant was collected. The pull-down product was then detected by western blot assay.

NCL [4] = molecular target: T2, NCL; test: Biotin-oligonucleotide pull-down from HeLa cell lysate, western blot (NCL); format: binding; set-up: HeLa cervical cancer cells were lysed with an IP lysis solution; endogenous in cells; host or cells: HeLa cell lysate; conditions: 5′-biotin label, 0 nM-20 μM
Method: (§2) HeLa cervical cancer cells were lysed with an IP lysis solution (purchased from Thermo Scientific, Cat. No.: 87788) and then incubated with a CRO (cytosine-rich oligonucleotide, negative control, SEQ ID NO: 13), AS1411, or iSN04 labeled by biotin at the 5′ end at different concentrations (0 nM, 200 nM, 500 nM, 1 μM, 5 μM, 10 μM, and 20 μM) at 4° C. for 6h. Subsequently, streptavidin agarose gel beads (purchased from cytiva, Cat. No.: 17511301) were added, and the mixture was further incubated at 4° C. overnight. After the bound biotin-labeled CRO, AS411, or iSN04 and its captured proteins on the gel beads were washed multiple times with an IP lysis buffer (purchased from Thermo Scientific, Cat. No.: 87788), an SDS-PAGE protein loading buffer (purchased from Beyotime, Cat. No.: P0015) was added, and the mixture was heated to 100° C. and held for 10 min. After centrifugation, the supernatant was collected as a pull-down product. The pull-down product was detected by western blot assay.

MDM2 [5] = molecular target: T3, MDM2 (Homo sapiens, UniProt Q00987); test: Biotin-oligonucleotide pull-down with recombinant proteins (MDM2); format: binding; set-up: purchased R&D Systems (MDM2); ACROBiosystems (NCL) E3-202-050 (MDM2); NUL-H5253 (NCL); conditions: 400 nM 5′-biotin label, 6 μg/mL NCL + 6 μg/mL MDM2
Method: as §1
Target sequence in this assay (P19338 whole entry partner): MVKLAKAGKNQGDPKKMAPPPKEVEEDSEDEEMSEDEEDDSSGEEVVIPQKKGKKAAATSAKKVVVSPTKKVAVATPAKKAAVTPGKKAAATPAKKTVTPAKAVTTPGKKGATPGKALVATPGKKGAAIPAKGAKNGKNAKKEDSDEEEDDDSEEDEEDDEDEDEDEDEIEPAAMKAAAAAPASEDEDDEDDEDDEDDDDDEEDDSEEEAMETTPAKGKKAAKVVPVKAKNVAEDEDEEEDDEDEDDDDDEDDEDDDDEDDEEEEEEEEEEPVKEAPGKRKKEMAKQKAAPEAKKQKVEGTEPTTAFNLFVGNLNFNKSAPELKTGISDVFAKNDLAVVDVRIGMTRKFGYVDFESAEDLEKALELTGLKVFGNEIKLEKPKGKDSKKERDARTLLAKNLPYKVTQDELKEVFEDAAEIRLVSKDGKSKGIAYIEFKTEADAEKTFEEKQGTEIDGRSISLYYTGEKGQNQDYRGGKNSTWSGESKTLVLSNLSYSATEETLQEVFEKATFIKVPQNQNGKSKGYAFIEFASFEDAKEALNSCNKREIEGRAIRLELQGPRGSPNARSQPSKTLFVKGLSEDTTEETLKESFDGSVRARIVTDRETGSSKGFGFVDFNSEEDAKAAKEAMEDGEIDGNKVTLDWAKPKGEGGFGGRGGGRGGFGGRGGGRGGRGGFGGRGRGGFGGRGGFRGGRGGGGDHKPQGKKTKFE
Target sequence in this assay (Q00987 whole entry): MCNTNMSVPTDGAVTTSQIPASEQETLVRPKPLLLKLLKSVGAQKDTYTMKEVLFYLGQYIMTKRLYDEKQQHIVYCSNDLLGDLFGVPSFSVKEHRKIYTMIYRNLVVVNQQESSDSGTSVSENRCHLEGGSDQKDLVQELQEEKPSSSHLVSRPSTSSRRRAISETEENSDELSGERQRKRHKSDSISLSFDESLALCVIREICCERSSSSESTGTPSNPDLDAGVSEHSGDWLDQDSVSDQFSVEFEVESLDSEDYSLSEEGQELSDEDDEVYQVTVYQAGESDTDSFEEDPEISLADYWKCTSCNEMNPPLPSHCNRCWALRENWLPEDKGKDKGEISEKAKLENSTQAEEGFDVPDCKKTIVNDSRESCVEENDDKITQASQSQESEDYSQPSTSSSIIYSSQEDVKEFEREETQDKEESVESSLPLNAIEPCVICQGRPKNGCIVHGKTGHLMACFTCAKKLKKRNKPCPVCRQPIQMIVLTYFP

MDM2 [6] = molecular target: T3, MDM2; test: Biotin-oligonucleotide pull-down from HeLa cell lysate, western blot (MDM2); format: binding; set-up: HeLa cervical cancer cells were lysed with an IP lysis solution; endogenous in cells; host or cells: HeLa; conditions: 5′-biotin label, 0 nM-20 μM
Method: as §2
Target sequence in this assay (P19338 2-710 partner limits assumed): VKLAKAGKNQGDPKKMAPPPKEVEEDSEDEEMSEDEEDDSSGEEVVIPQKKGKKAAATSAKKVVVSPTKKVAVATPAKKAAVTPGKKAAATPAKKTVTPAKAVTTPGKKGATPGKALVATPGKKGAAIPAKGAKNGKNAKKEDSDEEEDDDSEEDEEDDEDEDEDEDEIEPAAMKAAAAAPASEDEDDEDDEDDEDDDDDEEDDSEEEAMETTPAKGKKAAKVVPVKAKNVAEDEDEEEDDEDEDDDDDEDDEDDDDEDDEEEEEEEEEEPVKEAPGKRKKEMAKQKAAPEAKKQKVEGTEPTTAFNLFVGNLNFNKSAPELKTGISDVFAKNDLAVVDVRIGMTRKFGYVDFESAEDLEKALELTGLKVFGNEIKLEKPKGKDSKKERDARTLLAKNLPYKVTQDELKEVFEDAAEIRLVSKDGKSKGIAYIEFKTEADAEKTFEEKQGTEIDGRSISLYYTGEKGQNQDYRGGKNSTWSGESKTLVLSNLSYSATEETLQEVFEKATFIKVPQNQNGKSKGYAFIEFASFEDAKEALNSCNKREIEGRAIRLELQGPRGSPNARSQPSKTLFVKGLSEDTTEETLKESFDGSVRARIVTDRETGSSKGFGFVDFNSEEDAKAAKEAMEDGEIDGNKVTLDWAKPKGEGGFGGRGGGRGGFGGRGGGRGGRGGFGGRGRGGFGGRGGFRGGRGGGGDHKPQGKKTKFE
Target sequence in this assay (Q00987 whole entry): as the sequence (Q00987 whole entry) above

[7] = G4 structural characteristics, N-methyl mesoporphyrin IX (NMM) fluorescent probe; format: physicochemical; conditions: 1 μM NMM
Method: Both AS1411 and iSN04 are oligonucleotides specifically binding to NCL. The sequence of AS1411 is SEQ ID NO: 1, and the sequence of iSN04 is SEQ ID NO: 14. AS1411 contains a plurality of GGT motifs, and iSN04 contains one GGT motif. Whether AS1411 and iSN04 have stable G4 structural characteristics was determined. The experimental process was as follows: 5 μM NC (negative control, SEQ ID NO: 15), AS1411, or iSN04 was added to water, and the total volume was 100 μL. The mixture was heated at 95° C. for 7 min and then immediately incubated on ice for 3 min, followed by the addition of 2 μL of N-methyl mesoporphyrin IX (NMM) (purchased from MCE, Cat. No.: HY-133821) to make a final concentration of 1 μM. The resulting mixture was incubated at room temperature for 1 h in the dark. The fluorescence intensity was detected by a microplate reader, with an emission wavelength of 550-700 nm and an excitation wavelength of […].
Guanine-rich DNA sequences can form more distinct G4 structural characteristics in the presence of metal ions (usually sodium and potassium ions). 5 μM NC (negative control, SEQ ID NO: 15), AS1411, or iSN04 was added to a 100 mM K^+ solution, and the total volume was 100 μL. The mixture was well mixed, heated at 95° C. for 7 min, and then immediately incubated on ice for 3 min, followed by the addition of 2 μL of N-methyl mesoporphyrin IX (NMM) (purchased from MCE, Cat. No.: HY-133821) to make a final concentration of 1 μM. The resulting mixture was incubated at room temperature for 1 h in the dark. The fluorescence intensity was detected by a microplate reader, with an emission wavelength of 550-700 nm and an excitation wavelength of […].

[8] = molecular target: T4, interaction between NCL and MDM2 (Homo sapiens, UniProt P19338); test: Co-immunoprecipitation of NCL and MDM2 from HeLa cell lysate, western blot; format: binding; conditions: 0-20 μM, 4° C. 6 h, IP with antibody against NCL
T4 construct: HeLa cervical cancer cells were lysed with an IP lysis solution; endogenous in cells; host or cells: HeLa cell lysate
Method: Co-immunoprecipitation (Co-IP) is a classical method for the study of protein interactions based on the specific interaction between an antibody and an antigen. It is an effective method to determine the physiological interaction between two proteins in intact cells.
HeLa cervical cancer cells were lysed with an IP lysis solution (purchased from Thermo Scientific, Cat. No.: 87788) and then incubated with AS 1411 or iSN04 at different concentrations (0 μM, 1 μM, 5 μM, 10 μM, and 20 μM) at 4° C. for 6 h. Subsequently, […] of an antibody against NCL was added, and the mixture was further incubated at 4° C. overnight. Protein A/G magnetic beads (purchased from Thermo Scientific, Cat. No.: 88802) were added, and the mixture was incubated with rotation at room temperature for 1.5 h. The bound NCL and its interacting proteins on the magnetic beads were washed with an IP lysis buffer (purchased from Thermo Scientific, Cat. No.: 87788), and an SDS-PAGE protein loading buffer (purchased from Beyotime, Cat. No.: P0015) was added. The mixture was heated to 100° C. and held for 10 min. The magnetic beads were adsorbed on a magnetic rack, and the supernatant was transferred into a new tube. Subsequently, western blot assay was performed to detect whether NCL bound to MDM2 and whether the binding was affected by AS 1411 or iSN04. […]

T2 sequence (P19338 whole entry): as the sequence (P19338 whole entry partner) above
T4 sequence (P19338 2-710 limits assumed): as the sequence (P19338 2-710 partner limits assumed) above
T1 sequence (Q00987 whole entry): as the sequence (Q00987 whole entry) above
T1 sequence (P19338 2-710 limits assumed): as the sequence (P19338 2-710 partner limits assumed) above

**Q.** With `CC(=O)N[C@H](C(=O)N1C[C@H](O)C[C@H]1C(=O)NCc1ccc(-c2scnc2C)cc1)C(C)(C)C` [VH032] as the compound, how does the “protein level of MDM2” value (MDM2 [1]) read?
**A.** neither AS1411, VH032, nor AS1411+VH032 can reduce the protein level of MDM2

**Q.** Which “toxicity to normal cells (cell apoptosis proportion)” value [2] does the source give for `COc1ccc(C2=N[C@@H](c3ccc(Cl)cc3)[C@@H](c3ccc(Cl)cc3)N2C(=O)N2CCNC(=O)C2)c(OC(C)C)c1` [nutlin-3a] here?
**A.** can cause cell apoptosis

**Q.** With “CRO: cytosine-rich oligonucleotide, negative control, SEQ ID NO: 13 (DNA CCTCCTCCTCCTTCTCCTCCTCCTCC; DNA, backbone and methylation of C not given here; further chemistry not fully specified)” as the compound, how does the “binding to NCL” value (NCL [3]) read?
**A.** cannot bind to either NCL or MDM2

**Q.** What about the “capture of NCL” value (NCL [4]) of the same compound?
**A.** cannot capture either NCL or MDM2

**Q.** And the “binding / recruitment of MDM2” value (MDM2 [5])?
**A.** cannot bind to either NCL or MDM2

**Q.** What about the “capture of MDM2” value (MDM2 [6]) of the same compound?
**A.** cannot capture either NCL or MDM2

**Q.** What does the source list for “iSN04: oligonucleotide specifically binding to NCL, SEQ ID NO: 14: 5′-AGATTAGGGTGAGGGTGA-3′ (DNA, backbone not given here)”?
**A.** G4 structural characteristics (fluorescence signal intensity) ([7]; 5 μM in 100 mM K+ solution): 1000-2000; G4 structural characteristics (fluorescence signal intensity) ([7]; 5 μM in water (no K+)): No G4 structural characteristics were detected; effect on the interaction between NCL and MDM2 [8]: blocks the binding of NCL to MDM2; binding to NCL (NCL [3]): can only bind to NCL; capture of NCL (NCL [4]): can capture NCL only at a high concentration; binding / recruitment of MDM2 (MDM2 [5]): cannot recruit MDM2 depending on its interaction with NCL; capture of MDM2 (MDM2 [6]): cannot capture MDM2

Reference: US20260256923A1, “NEW RECRUITMENT ELEMENT OF UBIQUITIN LIGASE AND USE THEREOF” (SHENZHEN LINGGENE BIOTECH CO., LTD., priority 2023, published 2026)
